Measured values reported in patent US20260116845A1, “LIPIDS AND COMPOSITIONS THEREOF” (Kernal Biologics, Inc., priority 2023, published 2026).

What was measured:
Format in all cases: cell-based
Details in all cases: 200 ng Fluc mRNA-LNP, 24 hours; Table 4
MC38.K Cell Line = assay: Transfection of MC38.K Cell Line with FLuc mRNA LNPs (ONE-Glo EX luciferase signal)
Description: (§1) mRNA encapsulated lipid nanoparticles (mRNA LNPs) were formulated using microfluidic mixing with a PNI Ignite instrument. Briefly, lipids (ionizable: structural: helper: PEG) were dissolved in ethanol and mixed with and aqueous solution of mRNA. These mRNA-loaded dispersions were then neutralized via a buffer exchange with a pre-determined buffer overnight. Afterwards, formed LNPs were concentrated with Amicon filter centrifugation, filtered, concentration of mRNA determined through a ribogreen assay, and frozen at −80° C. until use.
(§2) Cell lines were grown to confluence in T75 flasks using complete media of DMEM-F12 for AML12 and DMEM for both B16F10 and MC38.K. Cells were plated in a white 96 flat-well plate (AML12=20,000 cells/well, B16F10 and MC38.K=5,000 cells/well) with their respected media. Lipid nanoparticles were first diluted to 50 μg/ml using Opti-MEM and pre-incubated with mouse serum for 30 minutes to give an LNP concentration of 8 μg/ml. Cell media was replaced with Opti-MEM and LNPs were added to cells (200 ng of mRNA-LNP), placed back in the incubator, and allowed to transfect for 24 hours. Afterwards, 100 μl of Promega's ONE-Glo™ EX Luciferase Assay System or Promega's CellTiter-Glo® Luminescent Cell Viability Assay was added and mixed in their respective wells, followed by recording luminescence signals on a Thermo Scientific Varioskan LUX multimode microplate reader. The results are shown in FIG. 1, FIG. 2, FIG. 3, FIG. 4, FIG. 5, FIG. 6, FIG. 10, FIG. 11, and FIG. 21.

B16F10 Cell Line = assay: Transfection of B16F10 Cell Line with FLuc mRNA LNPs (ONE-Glo EX luciferase signal)
Description: as §1, §2

AML12 Cell Line = assay: Transfection of AML12 Cell Line with FLuc mRNA LNPs (ONE-Glo EX luciferase signal)
Description: as §1, §2

Structure (SMILES) | Total Luciferin Signal (RLU) In Vitro - MC38.K (MC38.K Cell Line) [RLU] | Total Luciferin Signal (RLU) In Vitro - B16F10 (B16F10 Cell Line) [RLU] | Total Luciferin Signal (RLU) In Vitro - AML12 (AML12 Cell Line) [RLU]
CCCCCCCCC(CCCCCCCC)OC(=O)CCCCCCCN(CCCCCCCC(=O)OCCCCCCCCC(C)C)CCOC(=O)CCCN(C)CCO [Compound 5] | 4.09E+06 | 1.79E+06 | 2.04E+05
CCCCCCCCC(CCCCCCCC)C(=O)OCCCCCCCN(CCCCCC(=O)OCCCCCCCCC(C)C)CCOC(=O)CCCN(C)C [Compound 7] | 1.35E+06 | 1.11E+06 | 1.48E+06
CCCCCCCCC(CCCCCCCC)C(=O)OCCCCCCCN(CCCCCOC(=O)CCCCCCCCC(C)C)CCOC(=O)CCCN(C)C [Compound 13] | 7.83E+05 | 2.12E+06 | 1.44E+06
CCCCCCCCC(CCCCCCCC)OC(=O)CCCCCCCN(CCCCCOC(=O)CCCCCCCCC(C)C)CCOC(=O)CCCN(C)C [Compound 15] | 6.94E+05 | 1.97E+06 | 1.53E+06
CCCCCCCCC(CCCCCCCC)OC(=O)CCCCCN(CCCCCC(=O)OCCCCCCCCCCC(C)C)CCOC(=O)CCCN(C)C [Compound 17] | 1.15E+06 | 2.64E+06 | 6.34E+05
CCCCCCCCC(CCCCCCCC)OC(=O)CCCCCCCN(CCO)CCCCCCCC(=O)OCCCCCCCCF [Compound 21] | 1.16E+06 | 1.03E+05 | 4.09E+05
CCCCCCCCC(CCCCCCCC)OC(=O)CCCCCCCN(CCCCCCCC(=O)OCCCCCCCCF)CCOC(=O)CCCN(C)C [Compound 22] | 2.65E+06 | 5.04E+05 | 1.24E+05
CCCCCCCCC(CCCCCCCF)OC(=O)CCCCCCCN(CCO)CCCCCC(=O)OCCCCCCCCC(C)C (stereo not drawn) [Compound 28] | 5.09E+05 | 2.34E+05 | 1.65E+05
CCCCCCCCC(CCCCCCCC)OC(=O)CCCCCCCN(CCO)CCCCCCCC(=O)OC(CCCCCCCC)CCCCCCCC [Compound 44] | 3.17E+06 | 1.26E+06 | 8.87E+05
CCCCCCCCC(CCCCCCCC)C(=O)OCCCCCCCN(CCO)CCCCCCCOC(=O)C(CCCCCCCC)CCCCCCCC [Compound 46] | 4.59E+06 | 1.48E+06 | 1.30E+06
CCCCCCCCCC(=O)OCCCCCCCN(CCO)CCCCCCCOC(=O)CCCCCCCCC [Compound 47] | 5.18E+04 | 3.88E+04 | 3.52E+04
CC(C)CCCCCCCCC(=O)OCCCCCCCN(CCO)CCCCCCCOC(=O)CCCCCCCCC(C)C [Compound 48] | 2.17E+06 | 4.45E+06 | 3.31E+06
CCCCCCCCCCCOC(=O)CCCCCN(CCO)CCCCCC(=O)OCCCCCCCCCCC [Compound 49] | 2.99E+04 | 9.79E+03 | 1.75E+04
CCCCCCCCCOC(=O)CCCCCN(CCO)CCCCCC(=O)OCCCCCCCCC [Compound 50] | 1.85E+04 | 1.30E+04 | 1.54E+04
CCCCCCCCC(CCCCCCCC)OC(=O)CCCCCN(CCO)CCCCCC(=O)OC(CCCCCCCC)CCCCCCCC [Compound 51] | 1.70E+06 | 1.28E+06 | 1.01E+06
CCCCCCC(CCCCCCCCF)COC(=O)CCCCCCCN(CCO)CCCCCCC(C)C(=O)OCCCCCCCCC(C)C (stereo not drawn) [Compound 73, 9-methyldecyl 8-((8-((10-fluoro-2-hexyldecyl)oxy)-8-oxooctyl)(2-hydroxyethyl)amino)-2-methyloctanoate] | 1.77E+07 | 7.08E+06 | 2.93E+06
CCCCCCCCCOC(=O)C(C)CCCCCCN(CCO)CCCCCCCCOC(=O)C(CCCC)CCCCCCF (stereo not drawn) [Compound 74, 8-((2-hydroxyethyl)(7-methyl-8-(nonyloxy)-8-oxooctyl)amino)octyl 2-butyl-8-fluorooctanoate] | 1.94E+05 | 6.66E+04 | 2.80E+04
CCCCCCCCC(CCCCCCCCF)OC(=O)CCCCCCCN(CCCCCCC(C)C(=O)OCCCCCCCCC(C)C)CC(C)CO (stereo not drawn) [Compound 75, 9-methyldecyl 8-((8-((1-fluoroheptadecan-9-yl)oxy)-8-oxooctyl)(3-hydroxy-2-methylpropyl)amino)-2-methyloctanoate] | 4.51E+04 | 2.15E+04 | 1.59E+04
CCCCCCCCCOC(=O)C(C)CCCCCCN(CCCCO)CCCCCCCCOC(=O)C(CCCC)CCCCCCF (stereo not drawn) [Compound 76, 8-((4-hydroxybutyl)(7-methyl-8-(nonyloxy)-8-oxooctyl)amino)octyl 2-butyl-8-fluorooctanoate] | 2.38E+05 | 7.14E+04 | 3.79E+04
CCCCCCCCCOC(=O)CCCCCCCN(CCCCO)CCCCCCCC(=O)OCC(CCCCCCCC)CCCCCCCCF (stereo not drawn) [Compound 77, 10-fluoro-2-octyldecyl 8-((4-hydroxybutyl)(8-(nonyloxy)-8-oxooctyl)amino)octanoate] | 3.24E+07 | 7.80E+06 | 5.38E+06
CCCCCCCCCOC(=O)C(C)CCCCCCN(CCO)CCCCCCCC(=O)OCC(CCCCCC)CCCCCCCCF (stereo not drawn) [Compound 78, nonyl 8-((8-((10-fluoro-2-hexyldecyl)oxy)-8-oxooctyl)(2-hydroxyethyl)amino)-2-methyloctanoate] | 2.21E+07 | 6.65E+06 | 2.42E+06
CCCCC(CCCCCCF)C(=O)OCCCCCCCCN(CCO)CCCCCCC(C)C(=O)OCCCCCCCCC(C)C (stereo not drawn) [Compound 79, 8-((2-hydroxyethyl)(7-methyl-8-((9-methyldecyl)oxy)-8-oxooctyl)amino)octyl 2-butyl-8-fluorooctanoate] | 1.65E+07 | 1.84E+06 | 7.26E+05
CCCCCCCCCOC(=O)CCCCCCCN(CCO)CCCCCCCC(=O)OCC(CCCCCCCC)CCCCCCCCF (stereo not drawn) [Compound 80, 10-fluoro-2-octyldecyl 8-((2-hydroxyethyl)(8-(nonyloxy)-8-oxooctyl)amino)octanoate] | 1.95E+07 | 2.97E+06 | 3.01E+06
CCCCCCCCCOC(=O)CCCCCCCN(CCCCO)CCCCCCCCOC(=O)C(CCCC)CCCCCCF (stereo not drawn) [Compound 81, 8-((4-hydroxybutyl)(8-(nonyloxy)-8-oxooctyl)amino)octyl 2-butyl-8-fluorooctanoate] | 2.47E+06 | 5.85E+04 | 4.91E+04
